Measurements taken from article PMC5131395, “Asperterpenes A and B, two unprecedented meroterpenoids from Aspergillus terreus with BACE1 inhibitory activities” (Chemical Science, 2016).

Target: BACE1 (Homo sapiens, UniProt P56817)
Experiment: cell-based FRET peptide cleavage assay, HEK-293 cells

Chain of BACE1 (P56817 46-501): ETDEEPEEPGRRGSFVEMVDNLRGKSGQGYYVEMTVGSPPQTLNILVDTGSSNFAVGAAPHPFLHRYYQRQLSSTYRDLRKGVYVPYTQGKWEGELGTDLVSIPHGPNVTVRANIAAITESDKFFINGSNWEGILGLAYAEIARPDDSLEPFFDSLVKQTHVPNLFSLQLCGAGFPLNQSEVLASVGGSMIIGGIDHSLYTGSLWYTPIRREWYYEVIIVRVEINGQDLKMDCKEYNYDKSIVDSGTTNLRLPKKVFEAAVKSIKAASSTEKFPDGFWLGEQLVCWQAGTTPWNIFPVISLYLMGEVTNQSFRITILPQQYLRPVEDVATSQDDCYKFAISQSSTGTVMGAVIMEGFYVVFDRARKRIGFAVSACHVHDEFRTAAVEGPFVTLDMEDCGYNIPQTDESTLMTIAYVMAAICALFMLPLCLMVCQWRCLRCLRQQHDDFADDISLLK

Row | IC50 [nM] | Structure (SMILES)
1 | 78 | COC(=O)C1=C(C)[C@@]2(C)C[C@H]3[C@@]4(C)CCC(=O)C(C)(C)[C@@H]4CC[C@]3(C)[C@@](C)(C1=O)C2=O [compound 1, asperterpene A]
2 | 59 | COC(=O)CC[C@@]1(C)[C@H](C(C)(C)O)CC[C@@]2(C)[C@H]1C[C@@]1(C)C(=O)[C@]2(C)C(=O)C(C(=O)OC)=C1C [compound 2, asperterpene B]
